In general, IC50 refers to the concentration at which inhibition is half-maximal.

One test concerns the target T1, IDO (Homo sapiens, UniProt P14902).
T1 construct: endogenous in cells; host or cells: HeLa cells treated with IFNγ
Put plainly: Hela cell-based IDO inhibitory activity test (IFNγ added). As to conditions: Hela cells with IFNγ, 48 hours incubation, OD 480 nm. The method, then:
2. Hela Cell-Based IDO Inhibitory Activity Test Method
The first step: cell plating. Prepare complete medium and mix well. Cell lines that are in good growth state are selected. Remove the cell culture flask from the incubator and check the cell name, media type and cell generation number on the bottle. The medium was discarded, digested with trypsin, and after digestion, the cells were neutralized with serum-containing medium, and the cells were blown to cause the cells to fall off. Pipette the cell suspension into a centrifuge tube and centrifuge at a speed of 800-1000 for 3-5 minutes. Aspirate the cell supernatant from the centrifuge tube. Add an appropriate volume of medium to the tube and gently blister to resuspend the cells. Count using a Vi-Cell XR cytometer. Adjust the cell suspension to the appropriate concentration. The cell suspension was added to a white-well 96-well plate at 80 μl/well according to the schematic below. The second step: preparation and addition of the compound. Compounds were formulated in DMSO at 600 μM and the compounds were diluted in DMSO according to a multiple of the following table to give 6 concentration gradients of the compound. The 200× compound prepared in DMSO was formulated into a 10× dilution solution in proportion to the corresponding cell culture medium. After 24 hours of cell seeding, 10 μL of 10× corresponding compound dilution and 10 μL of 10×IFNγ were added to each well. Incubate for 48 hours in a 37° C. incubator. The third step: detection and analysis. Cell morphology was observed under an inverted microscope. 80 μL of the supernatant was added to a 3894 plate, 10 μL of 6.1 N trichloroacetic acid was added to each well, shaken for 2 minutes, and placed in a 50-degree incubator for 30 minutes. Centrifuge, 2500 rpm for 10 minutes.
Take 70 μL of the supernatant and transfer to a 3635 UV plate, add 70 μL of the reaction solution, and shake for 2 minutes to make the reaction uniform. Use EnSpire (PE) to detect data with an OD of 480 nm. The cell culture plate 3903 was allowed to stand at room temperature for 30 minutes. 100 μL/well of the cell activity detecting reagent was added to the culture plate. Mix on a shaker for 2 minutes to induce cell lysis. The 96-well plate was allowed to stand at room temperature for 10 minutes to stabilize the luminescence signal. Paste the white base film on the bottom of the plate and tested with Flexstation3 plate (the relevant setting is: Illumination, integration time 500 ms). Record the experimental results obtained from the analysis.
The IC50 value is expressed in the following manner: […]

For the next test, the target named is T2, hIDO1 (Homo sapiens, UniProt P14902).
T2 construct: expressed in transfected cells; host or cells: HEK293T (293T) cells, transient transfection with Fugene 6
Put plainly: IDO inhibition activity based on HEK293T cells transfected with hIDO1 plasmid. It counts as cell-based. Conditions: HEK293T cells transfected with hIDO1, 16 hours incubation, OD 480 nm; read-out: IDO inhibitory activity of HEK293T cells (IC50). The procedure:
1. Test Method for IDO Inhibition Activity Based on HEK293T Cells:
The first step: cell transfection and plating. 5×10^6 293T cells were separately seeded in two T75 flasks and incubated overnight at 37° C. in a 5% CO2 incubator. […] of a mixture containing 1.5 μg of hIDO1 plasmid and 300 μL of opti-MEM was made into a mixture A; 18 μL of liposome fugene 6 was mixed with 300 μL of opti-MEM to prepare a mixture B, and allowed to stand at room temperature for 5 minutes. Mixture A and Mix B were mixed, placed at room temperature for 20 minutes, added to a 293T culture flask, and the other flask was used as a control and incubated overnight at 37° C. in a 5% CO2 incubator. The medium was discarded, digested with trypsin, and after digestion, the cells were neutralized with serum-containing medium, and the cells were blown to cause the cells to fall off. Pipette the cell suspension into a centrifuge tube and centrifuge at a speed of 800-1000 for 1-3 minutes. Aspirate the cell supernatant from the centrifuge tube. Add an appropriate volume of medium to the tube and gently blister to resuspend the cells. Count using a Vi-Cell XR cytometer. Adjust the cell suspension to the appropriate concentration. The cell suspension was added to a white-well 96-well plate at 80 μL/well. The second step: preparation and addition of the compound. Compounds were formulated in DMSO at 600 μM and the compounds were diluted in DMSO according to a multiple of the following table to give 6 concentration gradients of the compound. The 200× compound prepared in DMSO was formulated into a 10× dilution solution in proportion to the corresponding cell culture medium. Add 10 μL of 10× corresponding compound dilution and 10 μL of 10×TRP to each well, except for Min. Incubate for 16 hours in a 37° C. incubator. The third step: detection and analysis. Cell morphology was observed under an inverted microscope. 80 μL of the supernatant was added to a 3894 plate, and 10 μL of 6.1 N trichloroacetic acid was added to each well, shaken for 2 minutes, and placed in a 50-degree incubator for 30 minutes. Centrifuged at 2500 rpm for 10 minutes. Take 70 μL of the supernatant and transfer to a 3635 UV plate, add 70 μL of the reaction solution, and shake for 2 minutes to make the reaction uniform. Use EnSpire (PE) to detect data with an OD of 480 nm. The cell culture plate 3903 was allowed to stand at room temperature for 30 minutes. 100 μL/well of the cell activity detecting reagent was added to the culture plate. Mix on a shaker for 2 minutes to induce cell lysis. The 96-well plate was allowed to stand at room temperature for 10 minutes to stabilize the luminescence signal. Paste the white base film on the bottom of the plate and the plate was tested in Flexstation 3 (the relevant setting is: Illumination, integration time 500 ms). Record the experimental results obtained from the analysis.
The IC50 value is expressed by: A: IC50 value≤10 nM; B: 10 nM<IC50 value≤50 nM; C: 50 nM<IC50 value≤100 nM; D: IC50 value>100 nM.

T1 sequence (P14902 whole entry): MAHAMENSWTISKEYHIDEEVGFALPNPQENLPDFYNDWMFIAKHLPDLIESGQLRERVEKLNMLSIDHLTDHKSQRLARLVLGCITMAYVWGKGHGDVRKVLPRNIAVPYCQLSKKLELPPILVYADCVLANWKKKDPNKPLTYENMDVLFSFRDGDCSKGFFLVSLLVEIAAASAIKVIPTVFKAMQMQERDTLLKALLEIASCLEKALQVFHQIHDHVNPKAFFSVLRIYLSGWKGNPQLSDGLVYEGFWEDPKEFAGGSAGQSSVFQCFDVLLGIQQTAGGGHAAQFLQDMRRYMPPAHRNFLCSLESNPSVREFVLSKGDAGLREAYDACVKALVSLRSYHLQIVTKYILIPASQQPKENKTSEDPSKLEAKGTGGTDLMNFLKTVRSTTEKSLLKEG
T2 sequence (P14902 whole entry): as above

In the case of `CC(C(=O)Nc1ccc(Cl)nc1)[C@@H]1C[C@]2(C)C[C@H](c3ccnc4ccc(F)cc34)C[C@]2(C)C1` (stereo partly drawn) [Compound 42], the IC50 at IDO is at most 5 nM; on hIDO1, 10 to 50 nM.
For `O=C(Nc1ccc(Cl)cn1)C1([C@@H]2C[C@H]3C[C@@H](c4ccnc5ccc(F)cc45)C[C@H]3C2)CC1` [Compound 92], the IC50 against IDO was at most 5 nM; on hIDO1 it was at most 10 nM.
As to `C#Cc1ccc(NC(=O)C2([C@@H]3C[C@H]4C[C@@H](c5ccnc6ccc(F)cc56)C[C@H]4C3)CC2)cn1` [Compound 93], the figures for the IC50 against IDO and on hIDO1 were at most 5 nM and at most 10 nM, respectively.
The matching figures for `CC(C(=O)Nc1ccc(Cl)nc1)[C@H]1C[C@H]2C[C@@H](c3ccnc4ccc(F)cc34)C[C@H]2C1` (stereo partly drawn) [Compound 27]: at most 5 nM and 10 to 50 nM.
The matching figures for `C/C(C(=O)Nc1ccc(Cl)cc1)=C1\C[C@@H]2C[C@H](c3ccnc4ccc(F)cc34)C[C@@H]2C1` [Compound 68]: at most 5 nM and at most 10 nM.
With `CC#Cc1ccc(NC(=O)C(C)(C)[C@H]2C[C@H]3C[C@@H](c4ccnc5ccc(F)cc45)C[C@H]3C2)nc1` [Compound 90], the IC50 was at most 5 nM against IDO and at most 10 nM at hIDO1.
The matching figures for `C#Cc1ccc(NC(=O)C(C)(C)[C@H]2C[C@H]3C[C@@H](c4ccnc5ccc(F)cc45)C[C@H]3C2)nc1` [Compound 86]: at most 5 nM and at most 10 nM.
On to `CC(C(=O)Nc1ccc(C#N)cn1)[C@H]1C[C@H]2C[C@@H](c3ccnc4ccc(F)cc34)C[C@H]2C1` (stereo partly drawn) [Compound 73], for which the IC50 is at most 5 nM against IDO and at most 10 nM at hIDO1.
With `O=C(C[C@@H]1C[C@@H]2C[C@H](c3ccnc4ccc(F)cc34)C[C@@H]2C1)Nc1ccc(Cl)cc1` [Compound 2], the figures for the IC50 on IDO and on hIDO1 were 5 to 25 nM and 10 to 50 nM, respectively.
Consider `O=C(C[C@@H]1C[C@@H]2C[C@@H](c3ccnc4ccc(F)cc34)C(O)[C@@H]2C1)Nc1ccc(Cl)cc1` (stereo partly drawn) [Compound 50], for which the IC50 lay in the range of 5 to 25 nM against IDO and 10 to 50 nM on hIDO1.
As for `CC(C)(C(=O)Nc1ccc(Cl)nc1)[C@H]1C[C@H]2C[C@@H](c3ccnc4ccc(F)cc34)C[C@H]2C1` [Compound 85], the IC50 against IDO was 5 to 25 nM; at hIDO1, at most 10 nM.
Consider `CC(C(=O)Nc1ccc(Cl)cc1)[C@@H]1C[C@@H]2CN(c3ccnc4ccc(F)cc34)C[C@@H]2C1` (stereo partly drawn) [Compound 9], for which the IC50 against IDO and at hIDO1 was over 100 nM throughout.
For the molecule `C#Cc1ccc(NC(=O)C(C)(C)[C@H]2C[C@H]3C[C@@H](c4ccnc5ccc(F)cc45)C[C@H]3C2)cn1` [Compound 87], the figures for the IC50 against IDO and at hIDO1 were at most 5 nM and at most 10 nM, respectively.
In the case of `CC(C(=O)Nc1ccc(Cl)cn1)[C@H]1C[C@H]2CC(c3ccnc4ccc(F)cc34)C[C@H]2C1` (mixture of isomers) [Compound 26], the IC50 against IDO is at most 5 nM; on hIDO1, 10 to 50 nM.
The matching figures for `C#Cc1ccc(NC(=O)C[C@@H]2C[C@@H]3C[C@H](c4ccnc5ccc(F)cc45)C[C@@H]3C2)nc1` [Compound 67]: at most 5 nM and at most 10 nM.
As for `CC(C(=O)Nc1ccc(C#N)nc1)[C@H]1C[C@H]2C[C@@H](c3ccnc4ccc(F)cc34)C[C@H]2C1` (stereo partly drawn) [Compound 72], the values for the IC50 on IDO and at hIDO1 were at most 5 nM and at most 10 nM, respectively.
For `CC(C)(C(=O)Nc1ccc(Cl)cn1)[C@H]1C[C@H]2C[C@@H](c3ccnc4ccc(F)cc34)C[C@H]2C1` [Compound 84], the results for the IC50 at IDO and on hIDO1 were over 100 nM and at most 10 nM, respectively.
The matching figures for `C#Cc1ccc(NC(=O)C(C)[C@H]2C[C@H]3C[C@@H](c4ccnc5ccc(F)cc45)C[C@H]3C2)cc1` (stereo partly drawn) [Compound 34]: at most 5 nM and at most 10 nM.
As for `O=C(C[C@@H]1C[C@H]2CC(c3ccnc4ccc(F)cc34)C[C@H]2C1)Nc1ccc(Cl)nc1` (stereo partly drawn) [Compound 22], the results for the IC50 on IDO and on hIDO1 were 5 to 25 nM and 10 to 50 nM, respectively.
Turning to `CC(C(=O)Nc1ccc(Cl)cc1)[C@@H]1C[C@H]2C[C@@H](c3ccnc4ccc(F)cc34)C[C@H]2C1` (stereo partly drawn) [Compound 4], the IC50 on IDO was at most 5 nM; on hIDO1 it was 10 to 50 nM.
The matching figures for `O=C(Nc1ccc(Cl)cn1)C1([C@H]2C[C@H]3C[C@@H](c4ccnc5ccc(F)cc45)C[C@H]3C2)CC1` [Compound 95]: at most 5 nM and at most 10 nM.
For the molecule `CC(C)(C(=O)Nc1ccc(C#N)cn1)[C@H]1C[C@H]2C[C@@H](c3ccnc4ccc(F)cc34)C[C@H]2C1` [Compound 88], the IC50 on IDO was at most 5 nM; at hIDO1, at most 10 nM.
`N#Cc1ccc(NC(=O)C2([C@@H]3C[C@H]4C[C@@H](c5ccnc6ccc(F)cc56)C[C@H]4C3)CC2)nc1` [Compound 94]: the IC50 is at most 5 nM on IDO and 10 to 50 nM at hIDO1.
Consider `C#Cc1ccc(NC(=O)C2([C@H]3C[C@H]4C[C@@H](c5ccnc6ccc(F)cc56)C[C@H]4C3)CC2)nc1` [Compound 96], for which the IC50 at IDO is at most 5 nM; at hIDO1 it was at most 10 nM.
The matching figures for `CC(C(=O)Nc1ccc(Cl)nc1)N1C[C@H]2C[C@@H](c3ccnc4ccc(F)cc34)C[C@H]2C1` (stereo partly drawn) [Compound 45]: 5 to 25 nM and 10 to 50 nM.
For `C[C@H](C(=O)Nc1ccc(Cl)cc1)[C@H]1C[C@H]2C[C@@H](c3ccnc4ccc(F)cc34)C[C@H]2C1` (single isomer, unassigned) [Compound 1B], the IC50 against IDO was at most 5 nM; at hIDO1, at most 10 nM.
Regarding `CC(C(=O)Nc1ccc(Cl)cc1)C1=C[C@H]2C[C@@H](c3ccnc4ccc(F)cc34)C[C@H]2C1` (stereo partly drawn) [Compound 38], the IC50 is at most 5 nM against IDO and at most 10 nM on hIDO1.
